Key:
Assay in all cases: DSF 100 kinase selectivity screen;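 also: compound tested at 20 µM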
Type in all cases: binding
[1] = molecular target: T1, ~100 representative kinases (Homo sapiens, UniProt P00519); settings: Protein ABL1; average of three replicates
T1 construct: Recombinant protein kinase domains with a concentration of 2 μM
How it was run: (§1)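 Each kinase domain, at 2 μM, is mixed with 20 μM test compound and SYPRO Orange in Hepes (20 mM, pH 7.5) with 500 mM NaCl. Temperature is then raised at 3°C/min and fluorescence-monitored unfolding yields the melting temperature change, ΔTm in degrees Celsius.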

[2] = molecular target: T2, ~100 representative kinases (Homo sapiens, UniProt P16083); settings: protein NQO2; average of three replicates
T2 construct: Recombinant protein kinase domains with a concentration of 2 μM
T2 sequence (P16083 1-231): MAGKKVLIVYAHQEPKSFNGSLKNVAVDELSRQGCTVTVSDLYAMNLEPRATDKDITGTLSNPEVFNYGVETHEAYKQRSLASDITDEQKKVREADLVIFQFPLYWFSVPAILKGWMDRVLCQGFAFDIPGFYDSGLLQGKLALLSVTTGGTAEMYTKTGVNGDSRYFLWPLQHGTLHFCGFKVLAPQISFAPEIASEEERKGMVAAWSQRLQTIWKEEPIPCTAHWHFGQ
How it was run: as §1

[3] = molecular target: T3, ~100 representative kinases (Homo sapiens, UniProt P49674); settings: Protein CSNK1E; average of three replicates
T3 construct: Recombinant protein kinase domains with a concentration of 2 μM
How it was run: as §1

[4] = molecular target: T4, ~100 representative kinases (Homo sapiens, UniProt P53355); settings: Protein DAPK1; average of three replicates
T4 construct: Recombinant protein kinase domains with a concentration of 2 μM
How it was run: as §1

[5] = molecular target: T5, ~100 representative kinases (Homo sapiens, UniProt Q12866); settings: protein MERTK; average of three replicates
T5 construct: Recombinant protein kinase domains with a concentration of 2 μM
T5 sequence (Q12866 21-999): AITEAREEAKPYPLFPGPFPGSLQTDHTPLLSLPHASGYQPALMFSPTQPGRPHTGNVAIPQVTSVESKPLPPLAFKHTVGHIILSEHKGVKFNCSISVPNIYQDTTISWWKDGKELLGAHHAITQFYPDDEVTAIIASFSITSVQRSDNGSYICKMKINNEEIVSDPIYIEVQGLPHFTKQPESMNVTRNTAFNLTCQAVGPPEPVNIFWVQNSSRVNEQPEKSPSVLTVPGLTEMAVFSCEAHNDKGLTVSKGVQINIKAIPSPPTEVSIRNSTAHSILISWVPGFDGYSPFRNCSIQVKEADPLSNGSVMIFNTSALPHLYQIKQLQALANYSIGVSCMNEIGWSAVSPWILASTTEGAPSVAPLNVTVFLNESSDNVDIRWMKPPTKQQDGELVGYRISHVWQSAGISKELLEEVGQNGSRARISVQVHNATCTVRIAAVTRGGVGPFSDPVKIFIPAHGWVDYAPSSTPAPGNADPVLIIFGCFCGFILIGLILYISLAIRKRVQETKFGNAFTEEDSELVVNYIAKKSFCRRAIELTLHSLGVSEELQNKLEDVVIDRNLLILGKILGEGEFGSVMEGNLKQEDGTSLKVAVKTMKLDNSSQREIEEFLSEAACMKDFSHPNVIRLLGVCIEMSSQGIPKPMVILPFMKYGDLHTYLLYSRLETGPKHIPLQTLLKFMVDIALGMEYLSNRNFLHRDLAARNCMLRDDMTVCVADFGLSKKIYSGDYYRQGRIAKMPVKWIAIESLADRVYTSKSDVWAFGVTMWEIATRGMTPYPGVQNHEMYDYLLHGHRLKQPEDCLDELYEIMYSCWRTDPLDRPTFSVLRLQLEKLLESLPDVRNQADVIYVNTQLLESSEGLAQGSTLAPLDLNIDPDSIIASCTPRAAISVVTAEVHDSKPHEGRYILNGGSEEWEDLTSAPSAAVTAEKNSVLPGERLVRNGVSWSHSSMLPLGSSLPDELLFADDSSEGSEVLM
How it was run: as §1

[6] = molecular target: T6, ~100 representative kinases (Homo sapiens, UniProt Q13554); settings: Protein CAMK2B; average of three replicates
T6 construct: Recombinant protein kinase domains with a concentration of 2 μM
How it was run: as §1

[7] = molecular target: T7, ~100 representative kinases (Homo sapiens, UniProt Q15418); settings: Protein RPS6KA1; DSF; average of three replicates
T7 construct: Recombinant protein kinase domains with a concentration of 2 μM
How it was run: as §1

[8] = molecular target: T8, ~100 representative kinases (Homo sapiens, UniProt Q2M2I8); settings: Protein AAK1; average of three replicates
T8 construct: Recombinant protein kinase domains with a concentration of 2 μM
How it was run: as §1

[9] = molecular target: T9, ~100 representative kinases (Homo sapiens, UniProt Q99640); settings: protein PKMYT1; average of three replicates
T9 construct: Recombinant protein kinase domains with a concentration of 2 μM
T9 sequence (Q99640 1-499): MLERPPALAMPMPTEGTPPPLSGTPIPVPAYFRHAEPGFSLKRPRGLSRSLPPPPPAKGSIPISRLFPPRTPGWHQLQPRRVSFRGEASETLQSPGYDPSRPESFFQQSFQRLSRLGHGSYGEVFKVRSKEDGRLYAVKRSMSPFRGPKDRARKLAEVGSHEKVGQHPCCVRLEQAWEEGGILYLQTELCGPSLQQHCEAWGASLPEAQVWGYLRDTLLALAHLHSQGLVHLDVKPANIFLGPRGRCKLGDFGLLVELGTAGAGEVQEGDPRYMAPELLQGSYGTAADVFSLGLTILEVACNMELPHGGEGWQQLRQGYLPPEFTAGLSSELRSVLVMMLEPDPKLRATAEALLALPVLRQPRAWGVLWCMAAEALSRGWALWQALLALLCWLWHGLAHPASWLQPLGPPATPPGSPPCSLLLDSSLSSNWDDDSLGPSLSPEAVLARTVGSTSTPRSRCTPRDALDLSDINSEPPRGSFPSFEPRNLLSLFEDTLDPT
How it was run: as §1

[10] = molecular target: T10, ~100 representative kinases (Homo sapiens, UniProt Q9H2G2); settings: Protein SLK; DSF; average of three replicates
T10 construct: Recombinant protein kinase domains with a concentration of 2 μM
How it was run: as §1

T7 sequence (Q15418 whole entry, the tested form may be a part): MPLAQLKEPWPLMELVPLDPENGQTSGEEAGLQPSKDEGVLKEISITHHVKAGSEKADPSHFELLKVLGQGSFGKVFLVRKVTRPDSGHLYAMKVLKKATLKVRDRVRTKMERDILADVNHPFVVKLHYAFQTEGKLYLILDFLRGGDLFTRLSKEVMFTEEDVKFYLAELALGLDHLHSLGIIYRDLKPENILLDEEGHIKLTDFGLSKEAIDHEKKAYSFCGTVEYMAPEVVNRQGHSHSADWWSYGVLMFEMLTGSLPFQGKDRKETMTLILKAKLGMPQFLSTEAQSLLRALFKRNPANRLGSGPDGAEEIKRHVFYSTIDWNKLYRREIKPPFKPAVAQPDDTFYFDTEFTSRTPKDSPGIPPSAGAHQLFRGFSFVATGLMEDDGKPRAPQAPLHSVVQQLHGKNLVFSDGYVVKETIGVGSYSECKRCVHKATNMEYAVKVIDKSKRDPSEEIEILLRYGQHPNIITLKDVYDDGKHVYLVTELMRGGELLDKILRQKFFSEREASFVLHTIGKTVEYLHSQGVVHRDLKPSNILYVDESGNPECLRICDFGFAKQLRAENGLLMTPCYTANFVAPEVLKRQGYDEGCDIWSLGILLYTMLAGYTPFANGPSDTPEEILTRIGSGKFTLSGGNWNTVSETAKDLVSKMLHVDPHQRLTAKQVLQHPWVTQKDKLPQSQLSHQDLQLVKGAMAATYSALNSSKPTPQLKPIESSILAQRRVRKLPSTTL
T8 sequence (Q2M2I8 whole entry, the tested form may be a part): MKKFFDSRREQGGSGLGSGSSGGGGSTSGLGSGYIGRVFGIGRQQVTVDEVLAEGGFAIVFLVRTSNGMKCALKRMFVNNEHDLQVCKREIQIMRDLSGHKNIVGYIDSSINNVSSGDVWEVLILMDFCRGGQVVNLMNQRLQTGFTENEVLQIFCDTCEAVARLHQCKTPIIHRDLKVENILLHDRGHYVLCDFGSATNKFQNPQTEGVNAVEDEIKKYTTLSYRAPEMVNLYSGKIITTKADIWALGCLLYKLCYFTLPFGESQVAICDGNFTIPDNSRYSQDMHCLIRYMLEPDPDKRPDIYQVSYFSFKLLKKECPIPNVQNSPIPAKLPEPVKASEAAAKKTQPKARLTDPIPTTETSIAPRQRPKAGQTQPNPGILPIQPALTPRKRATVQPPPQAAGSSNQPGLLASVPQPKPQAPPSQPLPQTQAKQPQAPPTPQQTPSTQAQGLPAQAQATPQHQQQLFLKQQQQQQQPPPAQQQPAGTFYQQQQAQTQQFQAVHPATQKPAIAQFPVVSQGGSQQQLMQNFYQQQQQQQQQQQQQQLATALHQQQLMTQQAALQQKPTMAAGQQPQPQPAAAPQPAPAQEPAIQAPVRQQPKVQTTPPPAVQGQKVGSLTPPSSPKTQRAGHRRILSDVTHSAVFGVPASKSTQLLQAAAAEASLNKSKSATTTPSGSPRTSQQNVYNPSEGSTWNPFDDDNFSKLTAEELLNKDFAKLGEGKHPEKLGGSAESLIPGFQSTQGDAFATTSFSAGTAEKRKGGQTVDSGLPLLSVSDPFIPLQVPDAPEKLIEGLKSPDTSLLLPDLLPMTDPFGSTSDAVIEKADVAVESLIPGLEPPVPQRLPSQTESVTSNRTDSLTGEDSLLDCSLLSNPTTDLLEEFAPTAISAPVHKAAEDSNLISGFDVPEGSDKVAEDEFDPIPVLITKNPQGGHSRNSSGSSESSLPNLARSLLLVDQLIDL
T1 sequence (P00519 whole entry, the tested form may be a part): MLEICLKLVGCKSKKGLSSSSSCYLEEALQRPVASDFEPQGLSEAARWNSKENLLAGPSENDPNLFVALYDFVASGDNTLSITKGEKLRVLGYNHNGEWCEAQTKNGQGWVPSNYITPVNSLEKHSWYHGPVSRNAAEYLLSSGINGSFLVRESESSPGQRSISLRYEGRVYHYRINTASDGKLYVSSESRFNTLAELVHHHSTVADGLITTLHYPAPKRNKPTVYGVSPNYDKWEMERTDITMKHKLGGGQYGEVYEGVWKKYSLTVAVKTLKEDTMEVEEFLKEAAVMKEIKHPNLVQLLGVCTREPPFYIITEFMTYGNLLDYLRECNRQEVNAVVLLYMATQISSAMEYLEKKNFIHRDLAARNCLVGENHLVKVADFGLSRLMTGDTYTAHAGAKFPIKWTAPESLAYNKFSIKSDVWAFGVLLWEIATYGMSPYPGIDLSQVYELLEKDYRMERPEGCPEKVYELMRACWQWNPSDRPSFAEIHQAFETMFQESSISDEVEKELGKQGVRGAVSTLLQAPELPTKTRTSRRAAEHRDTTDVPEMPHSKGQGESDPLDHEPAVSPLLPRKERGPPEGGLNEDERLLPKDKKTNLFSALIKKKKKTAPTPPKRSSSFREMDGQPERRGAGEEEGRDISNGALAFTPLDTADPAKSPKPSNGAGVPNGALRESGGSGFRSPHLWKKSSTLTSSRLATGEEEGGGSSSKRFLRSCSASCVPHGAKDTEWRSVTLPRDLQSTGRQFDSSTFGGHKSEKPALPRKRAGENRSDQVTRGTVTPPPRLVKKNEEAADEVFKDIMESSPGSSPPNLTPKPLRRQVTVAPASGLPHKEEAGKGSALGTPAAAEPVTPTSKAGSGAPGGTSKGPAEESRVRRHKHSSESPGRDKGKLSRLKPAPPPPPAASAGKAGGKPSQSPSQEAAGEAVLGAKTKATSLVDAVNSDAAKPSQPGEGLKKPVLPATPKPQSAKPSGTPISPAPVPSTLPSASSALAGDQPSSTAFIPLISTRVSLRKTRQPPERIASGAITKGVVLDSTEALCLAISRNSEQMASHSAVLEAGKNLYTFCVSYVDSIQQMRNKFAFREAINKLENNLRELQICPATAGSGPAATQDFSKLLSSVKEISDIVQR
T10 sequence (Q9H2G2 whole entry, the tested form may be a part): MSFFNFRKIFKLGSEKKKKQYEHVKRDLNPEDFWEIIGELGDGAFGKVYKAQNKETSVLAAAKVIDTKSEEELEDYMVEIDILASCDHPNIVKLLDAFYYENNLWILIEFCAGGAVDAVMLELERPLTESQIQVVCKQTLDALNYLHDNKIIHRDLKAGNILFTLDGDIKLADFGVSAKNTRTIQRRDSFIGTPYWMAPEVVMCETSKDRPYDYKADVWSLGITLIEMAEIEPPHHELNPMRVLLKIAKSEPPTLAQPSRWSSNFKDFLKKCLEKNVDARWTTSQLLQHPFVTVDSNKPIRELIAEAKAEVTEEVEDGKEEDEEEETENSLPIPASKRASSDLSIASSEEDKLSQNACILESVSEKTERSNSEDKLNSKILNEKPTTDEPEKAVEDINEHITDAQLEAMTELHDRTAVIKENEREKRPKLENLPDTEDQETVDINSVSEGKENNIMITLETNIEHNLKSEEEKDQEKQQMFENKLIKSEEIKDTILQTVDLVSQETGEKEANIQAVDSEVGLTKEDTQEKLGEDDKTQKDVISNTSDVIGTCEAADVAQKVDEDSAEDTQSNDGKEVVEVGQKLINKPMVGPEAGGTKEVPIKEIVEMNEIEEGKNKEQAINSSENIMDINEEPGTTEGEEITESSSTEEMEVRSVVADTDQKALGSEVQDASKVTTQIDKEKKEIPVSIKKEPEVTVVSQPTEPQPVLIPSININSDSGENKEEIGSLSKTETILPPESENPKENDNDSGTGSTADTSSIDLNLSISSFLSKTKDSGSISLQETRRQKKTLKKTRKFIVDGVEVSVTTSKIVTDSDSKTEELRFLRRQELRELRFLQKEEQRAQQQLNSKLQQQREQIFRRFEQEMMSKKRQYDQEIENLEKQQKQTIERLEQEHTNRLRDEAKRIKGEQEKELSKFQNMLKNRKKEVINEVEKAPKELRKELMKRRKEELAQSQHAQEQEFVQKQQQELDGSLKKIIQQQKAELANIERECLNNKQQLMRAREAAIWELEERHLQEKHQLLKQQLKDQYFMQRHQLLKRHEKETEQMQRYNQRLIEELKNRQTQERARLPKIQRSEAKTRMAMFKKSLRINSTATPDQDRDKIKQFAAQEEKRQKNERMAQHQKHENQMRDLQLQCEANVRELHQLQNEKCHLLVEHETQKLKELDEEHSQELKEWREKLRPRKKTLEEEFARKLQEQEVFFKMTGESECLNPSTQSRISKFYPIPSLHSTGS
T3 sequence (P49674 whole entry, the tested form may be a part): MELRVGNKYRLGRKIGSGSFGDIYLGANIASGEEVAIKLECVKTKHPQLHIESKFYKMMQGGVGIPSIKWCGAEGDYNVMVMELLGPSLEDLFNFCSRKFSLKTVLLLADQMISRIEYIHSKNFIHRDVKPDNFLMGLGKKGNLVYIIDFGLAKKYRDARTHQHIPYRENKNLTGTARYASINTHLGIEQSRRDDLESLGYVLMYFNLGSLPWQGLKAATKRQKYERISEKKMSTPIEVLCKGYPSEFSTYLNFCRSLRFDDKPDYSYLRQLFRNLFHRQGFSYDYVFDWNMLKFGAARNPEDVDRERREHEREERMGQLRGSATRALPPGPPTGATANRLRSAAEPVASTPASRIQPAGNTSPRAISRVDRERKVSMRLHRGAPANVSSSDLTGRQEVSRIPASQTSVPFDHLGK

| SMILES | dTm [1] [K] | dTm [2] [K] | dTm [3] [K] | dTm [4] [K] | dTm [5] [K] | dTm [6] [K] | dTm [7] [K] | dTm [8] [K] | dTm [9] [K] | dTm [10] [K] |
| --- | --- | --- | --- | --- | --- | --- | --- | --- | --- | --- |
| COc1cc(NC(=O)C2(C(=O)Nc3cccc(-c4c[nH]c5ncnc(N6CCOCC6)c45)c3)CC2)ccc1F [Compound 21] | 1.21 | -1.04 | 5.78 | -1.16 | 0.18 | 1.15 | 0.11 | 4.69 | -0.64 | 6.44 |
| O=C(Nc1cccc(-c2c[nH]c3ncnc(N4CCOCC4)c23)c1)C1(C(=O)Nc2cc(Br)c(F)cc2F)CC1 [Compound 25] | 1.76 | -1.75 | 2.14 | -0.48 | 1.84 | 1.90 | -1.87 | -2.54 | -1.04 | 1.44 |
| COc1cc2c(Oc3ccc(NC(=O)C4(C(=O)Nc5ccc(F)cc5)CC4)cc3F)ccnc2cc1OCCCN1CCOCC1 [Foretinib, reference compound] | 13.44 | 0.08 | 3.48 | -0.15 | 13.18 | 0.83 | -0.88 | 0.82 | 0.92 | 8.07 |
| O=C(Nc1cccc(-c2c[nH]c3ncnc(N4CCOCC4)c23)c1)C1(C(=O)Nc2ccc(F)c(Br)c2F)CC1 [Compound 26] | 1.83 | -2.66 | 4.57 | -0.65 | 1.09 | 1.60 | 0.78 | -0.08 | -0.69 | 2.31 |
| COc1cc(S(C)(=O)=O)ccc1Nc1nc(N(C)C)c2c(Cl)c[nH]c2n1 [Compound 37] | 0.38 | -0.63 | 1.77 | 0.93 | -0.61 | -0.66 | 0.36 | 0.85 | -0.22 | -0.88 |
| O=C(Nc1cccc(-c2c[nH]c3ncnc(N4CCOCC4)c23)c1)C1(C(=O)Nc2ccc(F)cc2F)CC1 [Compound 23] | 1.35 | -1.88 | 3.09 | -1.28 | 0.52 | 0.18 | 0.27 | 2.93 | -0.59 | 4.42 |
| O=C(Nc1cccc(-c2c[nH]c3ncnc(N4CCOCC4)c23)c1)C1(C(=O)Nc2cccc3c2CCC3)CC1 [Compound 11] | 1.38 | -2.54 | 4.91 | -0.99 | 2.34 | 1.38 | 0.47 | -0.63 | -0.88 | 0.75 |
| O=C(Nc1ccccc1)C1(C(=O)Nc2cccc(-c3c[nH]c4ncnc(N5CCOCC5)c34)c2)CC1 [Compound 12] | 1.58 | 1.99 | 3.99 | 0.18 | 2.64 | 0.82 | 0.56 | 3.79 | 0.71 | 5.53 |
| COc1cc(C(=O)N2CCOCC2)c(F)cc1Nc1nc(N(C)C)c2c(Cl)c[nH]c2n1 [Compound 36] | 1.16 | -0.44 | 4.43 | 3.45 | -0.62 | 2.02 | 1.99 | 2.52 | -0.59 | -1.49 |

Results, then the compound that gave them:

| dTm [1] [K] | dTm [2] [K] | dTm [3] [K] | dTm [4] [K] | dTm [5] [K] | dTm [6] [K] | dTm [7] [K] | dTm [8] [K] | dTm [9] [K] | dTm [10] [K] | SMILES |
| --- | --- | --- | --- | --- | --- | --- | --- | --- | --- | --- |
| 2.30 | -1.08 | 6.66 | -2.58 | 2.25 | 2.01 | -0.38 | -0.91 | -2.18 | 5.75 | CC(C)(C)c1cccc(NC(=O)C2(C(=O)Nc3cccc(-c4c[nH]c5ncnc(N6CCOCC6)c45)c3)CC2)c1 [Compound 22] |
| 10.07 | -0.60 | 0.48 | 2.62 | 2.79 | -0.15 | 0.38 | 5.32 | -0.41 | 13.65 | Cc1ccc(-n2nc(C(C)(C)C)cc2NC(=O)Nc2cccc(-c3c[nH]c4ncnc(N5CCOCC5)c34)c2)cc1 [Compound 29] |
| 2.49 | -0.15 | 7.33 | -0.50 | 5.74 | 0.73 | -0.19 | 1.95 | 0.10 | 6.46 | O=C(Nc1cccc(-c2c[nH]c3ncnc(N4CCOCC4)c23)c1)c1cccn(-c2ccc(F)cc2)c1=O [Compound 4] |
| 1.94 | 0.0657 | 2.91 | -0.75 | 0.37 | 1.13 | 0.29 | 2.03 | 0.54 | 5.04 | CCc1ccc(NC(=O)C2(C(=O)Nc3cccc(-c4c[nH]c5ncnc(N6CCOCC6)c45)c3)CC2)cc1 [Compound 15] |
| 2.73 | -0.27 | -1.75 | -1.54 | 0.10 | -1.59 | -0.67 | 0.59 | -0.30 | 9.23 | CC(=O)N1CCN(c2nc(Cl)nc3[nH]cc(-c4cccc(NC(=O)Nc5cc(C(C)(C)C)nn5-c5ccc(C)cc5)c4)c23)CC1 [Compound 31] |
| 7.77 | 0.00214 | 1.81 | 2.32 | 5.15 | 1.84 | 0.32 | 6.38 | 0.83 | 13.85 | CC(C)(C)c1cc(NC(=O)Nc2cccc(-c3c[nH]c4ncnc(N5CCOCC5)c34)c2)n(-c2ccc3ncccc3c2)n1 [Compound 28] |

Reference: paper PMC12136037, “Type II kinase inhibitors that target Parkinson’s disease–associated LRRK2” (Science Advances, 2025)
